Tests used:
BV2 cells [1] = test: Cytotoxicity of eleutheroside B to microglia (CCK-8/WST-8 survival rate); assay type: cell-based; conditions: 24 hours, mean±standard deviation
Method: (§1) BV2 cells were cultured in high glucose DMEM medium containing 10% FBS and penicillin-streptomycin solution (5000 units/ml penicillin, 5 mg/ml streptomycin, Corning, USA) in a cell incubator at 37° C. in 5% CO2, which was used by subculturing three times a week therein.
(§2) Cultured BV2 cells were harvested using 0.1% trypsin to obtain a population, and cultured in 96-well plates pre-coated with Poly-D-Lysine (Sigma).
In order to check the cytotoxicity of eleutheroside B, BV2 cells (3×10^5 cells/well) were cultured in a 96-well culture plate for 24 hours, and then treated with various concentrations of eleutheroside B, followed by incubation for 24 hours. After 24 hours, the medium was removed and WST-8 [2-(2-methoxy-4-nitrophenyl)-3-(4-nitrophenyl)-5-(2,4-disulfophenyl)-2H-tetrazolium (Cell Counting Kit-8 (CCK-8), dojindo)] was added at a concentration of 100 uL/mL to induce a reduction reaction while incubating for 1 hour, and then absorbance (450 nm) was measured. Cell viability (%) (viability (%)=(treated group−negative control)/(positive control−negative control)×100) was calculated using the eleutheroside B treated group and the untreated control group.

astrocytes [2] = test: Inhibition of LPS-induced astrocyte activity (cell number, cell area, GFAP intensity; high content imaging); assay type: cell-based, rats; conditions: LPS-activated astrocytes
Method: The brains of 1-2 day old rats were excised, separated from the cerebral cortex, and cultured. That is, the […] cortex was divided into single cells in high-glucose DMEM medium containing 10% FBS and penicillin-streptomycin solution (5000 units/ml penicillin, 5 mg/ml streptomycin, Corning, USA), and cultured in a 75-cm2T flask. (0.5 hemispheres/flask) in a cell incubator at 5% CO2 and 37° C.
After 1 week of culture, microglia were removed by shaking at 250 rpm for 4 hours, and the cultured astrocytes were harvested using 0.1% trypsin to obtain an astrocyte population. Astrocytes were cultured in 6-well plates previously coated with Poly-D-Lysine (Sigma).
Astrocytes were used after primary culture was isolated from the brain of pup within 1 to 3 days after birth, and the separated astrocytes were treated with LPS at expressing the lowest concentration of IL-6. The drug treatment was performed simultaneously with LPS, and the activity of astrocytes was evaluated through the number of proliferated cells and changes in morphology (FIG. 2).

astrocytes [3] = test: Cytokine secretion of LPS-treated astrocytes (multiplexing of conditioned media); assay type: cell-based, rats; conditions: conditioned media after 24 hours
Method: In order to more accurately study the above effect, the secretion of cytokines was observed simultaneously with the effect of inhibiting the activity of astrocytes. After 24 hours of treatment with LPS and drugs, conditioned media were collected and changes in pro-inflammatory cytokines (TNFα) and anti-inflammatory cytokines (IL-10) were examined.

[4] = test system: BV2 cells, a microglia cell line; test: Inhibition of LPS-induced microglia activity (cell number, Iba1 fluorescence intensity); assay type: cell-based; conditions: for fluorescence intensity of Iba1 (FIG. 8) / number of cells (FIG. 8): LPS-treated microglia, 24 hours
Method: as §1, §2
BV2 cells, a microglia cell line, were treated with LPS to induce microglia activation and inflammation, and eleutheroside B was treated at a concentration of 1 mM to 0.1 nM. The proliferation number and morphology changes after 24 hours of eleutheroside B treatment were quantified, and the activity level of microglial cells was verified by the fluorescence intensity of Iba1 (FIG. 6).
In order to confirm the regulation of the inflammatory response through the inhibition of microglia activity by eleutheroside B in a more precise way, high content imaging was analyzed by classifying into the number of proliferated cells and the fluorescence intensity of Iba1, and the results are shown in FIG. 8.

microglia = test: Cytokine secretion of LPS-treated microglia (multiplexing of conditioned media); assay type: cell-based; conditions: conditioned media after 24 hours
neural stem cells = test: Neurite activity from neural stem cells of B6;SJL-Tg(APPSWE)2576Kha transgenic mice; assay type: cell-based; conditions: 0.01 pg/mL and 1 pg/mL, compared to the control group
Method: (§3) B6;SJL-Tg(APPSWE)2576Kha, a genetically modified mouse for […], was used as an in-vitro brain disease model. Neural stem cells were isolated from subventricular zone (SVZ) tissues of transgenic newborn mice and neurospheres were cultured. In addition, neurosphere cells were induced to attach to the bottom with 5% FBS+F12/DMEM medium for 48 hours, and to observe differentiation potential, eleutheroside B in 5% BS+F12/DMEM medium was added to the cells, and neurite activity was observed under a microscope. In addition, the neuronal cell differentiation potential using the Neuro-2a cell line, which is a neuroblast, was confirmed. To confirm differentiation, neural differentiation markers such as DCX, Tuj1, neuroD, and NeuN were confirmed by qPCR.
In order to confirm the activity of neurite from neural stem cells according to eleutheroside B treatment, B6;SJL-Tg(APPSWE)2576Kha, a genetically modified mouse for degenerative brain disease, was used as an in-vitro brain disease model. Neural stem cells were isolated from the subventricular zone (SVZ) tissue of genetically modified newborn mice, and the number of cells to be used in the experiment was secured through neurosphere culture. […]

Neuro-2a = test: Neuronal differentiation marker analysis by qPCR in neuroblast cell line; assay type: cell-based; conditions: compared to the control
Method: as §3
In order to examine this at a molecular level, RNA analysis of neuronal differentiation markers (Sox2, Nestin, NeuroD, DCX, Tuj-1, NeuN) was performed, and the results are shown in FIG. 11.
When confirming the neuronal differentiation marker, a neuroblast cell line, Neuro-2a was used, and the differentiation was confirmed by qPCR to observe if the amoeba-type metaphase cells were differentiated into neurons by the drug.

5×FAD = test: Working memory ability (Y-maze) in 5×FAD Alzheimer's disease animal model; assay type: in vivo, mouse; conditions: 50 or 150 mg/kg intraperitoneally twice a week from 4 months, measured at 6 months
Method: (§4) In 5×FAD, an animal model of Alzheimer's disease, amyloid protein is deposited from 2.5 months and cognitive function is impaired from 6 months. Accordingly, eleutheroside B (vehicle, 50 or 150 mg/kg) was intraperitoneally administered twice a week from 4 months, and working memory ability was measured at 6 months when cognitive function was impaired. The experimental groups were 3 animals each of WT+vehicle, TG+vehicle, TG+50 mg/kg (TG_E.B(L)), and TG+150 mg/kg (TG_E.B(H)) of the same age as TG. Working memory ability was measured with Y-maze, and pre-adaptation training for the maze was performed the day before the maze experiment.
Working memory performance was performed by sequentially moving through three passages for 8 minutes in a Y-shaped maze to check whether the movement to the previous passage was remembered, and the degree of cognitive impairment was confirmed by calculating the ratio of sequentially crossing the three passages.

astrocytes (GFAP) = test: Brain immunohistochemistry of astrocyte activity (GFAP) in hippocampus of 5×FAD; assay type: in vivo, mouse; conditions: 50 or 150 mg/kg intraperitoneally twice a week
Method: as §4
(§5) In order to confine the pathological changes related to cognitive improvement, blood was removed by perfusion through the heart. The blood-free brain was fixed in 4% paraformaldehyde for one day, then made into a paraffin block and fabricated into 4 μm tissue sections for histological staining. The activities of astrocytes (GFAP) and microglia (Iba 1) were measured by confocal microscopy in the dentate gyrus, CA1, and CA3 regions of the hippocampus and the entorhinal cortex, which are major damaged areas in Alzheimer's disease.

microglia (Iba 1) = test: Brain immunohistochemistry of microglia activity (Iba 1) in hippocampus of 5×FAD; assay type: in vivo, mouse; conditions: 50 or 150 mg/kg intraperitoneally twice a week
Method: as §4, §5

BV2 cells [5] = conditions: according to the report; cited from earlier work
[6] = 1-10 nM drug, compared to LPS activity

SMILES: COc1cc(/C=C/CO)cc(OC)c1O[C@@H]1O[C@H](CO)[C@@H](O)[C@H](O)[C@H]1O [eleutheroside B]
- survival rate (BV2 cells [1]; 20 uM): 92±13.3%
- survival rate (BV2 cells [1]; 40 uM): 88±24.8%
- GFAP fluorescence intensity (FIG. 3) (astrocytes [2]; 0.01 pg of eleutheroside B): reduced to almost the same intensity as the control
- cell area (FIG. 4) (astrocytes [2]; [6]): reduced
- intensity of GFAP (FIG. 4) (astrocytes [2]; [6]): reduced
- number of proliferated cells (FIG. 4) (astrocytes [2]; [6]): showed cell proliferation compared to LPS activity
- anti-inflammatory cytokine IL-10 secretion (astrocytes [3]): increased
- pro-inflammatory cytokine TNF-α secretion (astrocytes [3]): decreased
- Iba1 fluorescence intensity (FIG. 7) ([4]; LPS-activated microglia, 10 nM): reduced to almost the same intensity as that of the control
- fluorescence intensity of Iba1 (FIG. 8) [4]: decrease
- number of cells (FIG. 8) [4]: increased
- anti-inflammatory cytokine IL-10 secretion (microglia): increased
- pro-inflammatory cytokine TNF-α secretion (microglia): significant decrease in the pro-inflammatory cytokine TNF-α was not confirmed
- neurites (FIG. 10) (neural stem cells): showed an increase in neurites
- DCX (differentiation marker) (Neuro-2a): slight increase
- Tuj1 (differentiation marker) (Neuro-2a): slight increase
- nestine (expansion phase marker) (Neuro-2a): significant increase
- neuN (integration phase marker) (Neuro-2a): significant increase
- neuroD (differentiation phase marker) (Neuro-2a): significant increase
- sox2 (expansion phase marker) (Neuro-2a): significant increase
- working memory ability (Y-maze) (5×FAD): almost the same remarkable cognitive ability improvement as the control group
- activity of astrocytes / inflammation in CA1 of the hippocampus (FIG. 15) (astrocytes (GFAP)): greatly reduced
- fluorescence intensity of Iba 1 in hippocampus (FIG. 16) (microglia (Iba 1)): lower than that of the Alzheimer's disease animal model
- microglia / inflammation in CA1 of the hippocampus (FIG. 18) (microglia (Iba 1)): greatly reduced almost as in the normal state
- inflammation / activity of microglial cells in all areas of the hippocampus (FIG. 17) (microglia (Iba 1); compared to the Alzheimer's disease animal model): suppressed
- concentration at which cytotoxicity was reported (BV2 cells [5]): 40 µM

SMILES: COc1cc2c(cc1OC)C(=O)C(CC1CCN(Cc3ccccc3)CC1)C2 (centres unmarked) [donepezil, reference compound]
- anti-inflammatory cytokine IL-10 secretion (astrocytes [3]): did not affect cytokine secretion
- pro-inflammatory cytokine TNF-α secretion (astrocytes [3]): did not affect cytokine secretion
- fluorescence intensity of Iba1 (FIG. 8) [4]: relatively less microglial activity inhibition pattern than eleutheroside B
- number of cells (FIG. 8) [4]: inhibiting microglia apoptosis
- anti-inflammatory cytokine IL-10 secretion (microglia): does not affect cytokine secretion
- pro-inflammatory cytokine TNF-α secretion (microglia): does not affect cytokine secretion
